“And” between values parts separate entries of the source, which are not always exact repeats. Identical values can stand only once. Numbered stars: 1 amine (or outer) side, 2 acyl side, 3 side chain; on linkers, the order of the positions; unused ones are H or OH. Peptide text beside a SMILES is read from it. * marks the point of attachment. Suc = O=C(CCC(=O)[*:2])[*:1]; Pyrrolidide = C1CCN(*)C1; NHiPr = CC(C)N*
Molecular target: T1, HSV-1 ribonucleotide reductase (Human herpesvirus 1, UniProt P08543)
T1 construct: HSV-1 ribonucleotide reductase (partially purified) was obtained from quiescent BHK-21/C13 cells infected with strain F HSV-1 virus; made in house; host or cells: quiescent BHK-21/C13 cells infected with HSV-1 strain F (10 pfu/cell); partially purified
T1 sequence (P08543 whole entry): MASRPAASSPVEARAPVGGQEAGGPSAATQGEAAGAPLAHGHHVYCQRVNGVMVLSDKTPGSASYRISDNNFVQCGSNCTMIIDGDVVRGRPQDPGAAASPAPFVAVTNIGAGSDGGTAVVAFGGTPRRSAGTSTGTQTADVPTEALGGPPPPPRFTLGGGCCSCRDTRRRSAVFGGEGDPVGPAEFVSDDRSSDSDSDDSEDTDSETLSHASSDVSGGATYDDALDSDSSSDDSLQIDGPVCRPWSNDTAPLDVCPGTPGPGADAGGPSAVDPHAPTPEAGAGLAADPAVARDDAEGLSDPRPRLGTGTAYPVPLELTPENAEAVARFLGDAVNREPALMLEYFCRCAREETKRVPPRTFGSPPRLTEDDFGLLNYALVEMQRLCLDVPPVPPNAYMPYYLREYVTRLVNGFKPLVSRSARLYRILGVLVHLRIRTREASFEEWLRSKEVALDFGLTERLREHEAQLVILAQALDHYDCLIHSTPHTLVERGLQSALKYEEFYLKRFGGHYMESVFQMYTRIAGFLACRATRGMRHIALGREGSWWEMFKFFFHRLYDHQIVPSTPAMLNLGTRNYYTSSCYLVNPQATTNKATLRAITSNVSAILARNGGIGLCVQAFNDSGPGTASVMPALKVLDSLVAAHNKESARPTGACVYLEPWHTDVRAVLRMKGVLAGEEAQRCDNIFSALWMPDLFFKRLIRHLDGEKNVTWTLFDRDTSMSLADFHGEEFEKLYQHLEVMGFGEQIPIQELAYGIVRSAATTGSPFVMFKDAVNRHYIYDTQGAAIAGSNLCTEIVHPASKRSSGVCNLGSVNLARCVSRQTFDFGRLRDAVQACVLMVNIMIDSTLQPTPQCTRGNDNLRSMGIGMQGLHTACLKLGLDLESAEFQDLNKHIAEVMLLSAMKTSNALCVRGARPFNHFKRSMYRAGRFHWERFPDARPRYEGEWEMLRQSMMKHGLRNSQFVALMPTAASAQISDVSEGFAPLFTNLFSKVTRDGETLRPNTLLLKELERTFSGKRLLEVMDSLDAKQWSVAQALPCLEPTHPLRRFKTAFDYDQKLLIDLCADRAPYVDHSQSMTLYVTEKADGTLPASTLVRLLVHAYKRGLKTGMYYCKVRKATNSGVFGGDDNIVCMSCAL
Test: biochemical
Settings: IC50, concentration producing 50% of the maximal inhibition of enzyme activity; partially purified enzyme; mean of four assays
Excerpt: HSV-1 ribonucleotide reductase (partially purified) was obtained from quiescent BHK-21/C13 cells infected with strain F HSV-1 virus at 10 plaque forming units/cell as described by E. A. Cohen et at., J. Gem Virol., 66, 733 (1985).
By following the procedure described by P. Gaudreau et at., J. Biol, Chem., 262, 12413 (1987), the assay results listed in the following table were obtained. The assay result for each exemplified compound of formula 1 is expressed as the concentration of the compound producing 50% of the maximal inhibition (IC50) of enzyme activity. The number of units of the enzyme preparation used in each assay was constant, based on the specific activity of the enzyme preparation. The results are relative to the activity obtained in control experiments without the test compound and represent the mean of four assays that varied less than 10% with each other.

Structure (SMILES)	IC50
CCC(CC)NC(=O)CCC(=O)N(C)[C@@H](CC(=O)N1CCCC1)C(=O)N[C@@H](CC(=O)O)C(=O)N[C@@H](CC(C)C)C(=O)O [Et2 CHNHCOCH2 CH2 CO-(N-Me)-Asp(pyrrolidino)-Asp-Leu-OH]	2 µM
CC(C)C[C@H](NC(=O)[C@H](CC(=O)O)NC(=O)[C@H](CC(=O)N1CCCC1)NC(=O)CCC(=O)NC(C)C)C(=O)O [Me2 CHNHCOCH2 CH2 CO-Asp(pyrrolidino)-Asp-Leu-OH] ({NHiPr-Suc}-Asp(Pyrrolidide)-Asp-Leu-OH)	18 µM
CC(C)CNC(=O)CCC(=O)N[C@@H](CC(=O)N1CCCC1)C(=O)N[C@@H](CC(=O)O)C(=O)N[C@@H](CC(C)C)C(=O)O [Me2 CHCH2 NHCOCH2 CH2 CO-Asp(pyrrolidino)-Asp-Leu-OH]	75 µM
CCC(CC)NC(=O)CCC(=O)N[C@@H](CC(=O)N1CCCC1)C(=O)N[C@@H](CC(=O)O)C(=O)N[C@@H](CC(C)C)C(=O)O [Title Compound of Example 10, Et2 CHNHCOCH2 CH2 CO--Asp(pyrrolidiono)--Asp-Leu--OH]	2.9 µM
CCC(CC)NC(=O)CCC(=O)N[C@@H](CC(=O)OC1CCCCC1)C(=O)N[C@@H](CC(=O)O)C(=O)N[C@@H](CC(C)C)C(=O)O [Et2 CHNHCOCH2 CH2 CO-Asp(cyclohexyloxy)-Asp-Leu-OH]	75 µM
CCC(CC)NC(=O)CCC(=O)N[C@@H](CC(=O)OCCCCCl)C(=O)N[C@@H](CC(=O)O)C(=O)N[C@@H](CC(C)C)C(=O)O [Et2 CHNHCOCH2 CH2 CO-Asp(4-chloro-butyloxy)-Asp-Leu-OH]	20 µM
CCC(CC)NC(=O)CCC(=O)N[C@@H](CC(=O)N1CCCC1)C(=O)N[C@H](C(=O)N[C@H](CO)CC(C)C)C1(C(=O)O)CCC1 [Et2 CHNHCOCH2 CH2,CO-Asp(pyrrolidino)-Asp(cyBu)-(L-leucinol)]	5 µM
CCCCCCCC(=O)C[C@H](NC(=O)CCC(=O)NC(CC)CC)C(=O)N[C@@H](CC(=O)O)C(=O)N[C@@H](CC(C)C)C(=O)O [Et2 CHNHCOCH2 CH2 CO-NHCH-(2-oxononyl)-CO-Asp-Leu-OH]	9 µM
CCC(CC)NC(=O)C1CCCCC1C(=O)N[C@@H](CC(=O)N1CCCC1)C(=O)N[C@@H](CC(=O)O)C(=O)N[C@@H](CC(C)C)C(=O)O (stereo partly drawn) [Et2 CHNHCO-(cis-1,2-cyclohexanediyl)-CO-Asp(pyrrolidino)-Asp-Leu-OH]	3.7 µM and 2.21 µM
CCC(CC)NC(=O)c1ccccc1C(=O)N[C@@H](CC(=O)N1CCCC1)C(=O)N[C@@H](CC(=O)O)C(=O)N[C@@H](CC(C)C)C(=O)O [Et2 CHNHCO-(1,2-phenylene)-CO-Asp(pyrrolidino)-Asp-Leu-OH]	6.5 µM
CCC(CC)NC(=O)CCC(=O)N[C@@H](CC(=O)N1CCC1)C(=O)N[C@@H](CC(=O)O)C(=O)N[C@@H](CC(C)C)C(=O)O [Et2 CHNHCOCH2 CH2 CO-Asp(azetidino)-Asp-Leu-OH]	9.1 µM
CCC(CC)NC(=O)CCC(=O)N[C@@H](CC(=O)C1CCCC1)C(=O)N[C@@H](CC(=O)O)C(=O)N[C@@H](CC(C)C)C(=O)O [Et2 CHNHCOCH2 CH2 CO-NHCH-(2-cyclopentyl-2-oxoethyl)-CO-Asp-Leu-OH]	3.4 µM
CCC(CC)NC(=O)CCC(=O)N[C@@H](CC(=O)N(C)CCO)C(=O)N[C@@H](CC(=O)O)C(=O)N[C@@H](CC(C)C)C(=O)O [Et2 CHNHCOCH2 CH2 CO-Asp[N(CH3)CH2-CH2 OH]-Asp-Leu-OH]	11 µM
CCC(CC)NC(=O)CCC(=O)N[C@@H](CC(=O)N1CCC(C)CC(C)(C)C1)C(=O)N[C@@H](CC(=O)O)C(=O)N[C@@H](CC(C)C)C(=O)O (stereo partly drawn) [Et2 CHNHCOCH2 CH2 CO-Asp(3,3,5-trimethylhexahydroazepino)-Asp-Leu-OH]	12 µM
CCCCCCCCN(C)C(=O)C[C@H](NC(=O)CCC(=O)NC(CC)CC)C(=O)N[C@H](C(=O)N[C@@H](CC(C)C)C(=O)O)C1(C(=O)O)CCCC1 [Et2 CHNHCOCH2 CH2 CO-Asp(N-Me-N-octyl)-Asp(cyPn)-Leu-OH]	0.73 µM
CC(C)C[C@H](NC(=O)[C@H](CC(=O)O)NC(=O)[C@H](CC(=O)N1CCCC1)NC(=O)CCC(=O)NC1CCCCC1)C(=O)O [Cyclohexylamino-COCH2 CH2 CO-Asp(pyrrolidino)-Asp-Leu-OH]	22 µM
CCC(CC)NC(=O)CCC(=O)N[C@@H](CC(=O)N(C)CCOC(C)=O)C(=O)N[C@@H](CC(=O)O)C(=O)N[C@@H](CC(C)C)C(=O)O [Et2 CHNHCOCH2 CH 2 CO-Asp[N(CH3)CH2-CH2 OCOCH3 ]-Asp-Leu-OH]	9.9 µM
CCCCCC[C@H](C)OC(=O)C[C@H](NC(=O)CCC(=O)NC(CC)CC)C(=O)N[C@H](C(=O)N[C@@H](CC(C)C)C(=O)O)C1(C(=O)O)CCC1 [Et2 CHNHCOCH2 CH2 CO-Asp[1(S)-methylheptyloxy]-Asp(cyBu)-Leu-OH]	4.4 µM
CCC(CC)NC(=O)/C=C\C(=O)N[C@@H](CC(=O)N1CCCC1)C(=O)N[C@@H](CC(=O)O)C(=O)N[C@@H](CC(C)C)C(=O)O [Et2 CHNHCO-(cis-CH=CH)-CO-Asp(pyrrolidino)-Asp-Leu-OH]	21 µM
CCC(CC)NC(=O)C[C@H](C(=O)N[C@@H](CC(=O)N1CCCC1)C(=O)N[C@H](C(=O)N[C@@H](CC(C)(C)C)C(=O)O)C1(C(=O)O)CCCC1)C(C)(C)C [Title Compound of Example 11, Et2 CHNH--COCH2 CH[(S)-C(CH3)3]CO--Asp(pyrrolidino)--Asp(cyPn)-γMeLeu--OH]	0.17 µM
CCC(CC)NC(=O)CCC(=O)N[C@@H](CC(=O)N1CCCC1)C(=O)N[C@H](C(=O)NCCC(C)(C)C)C(C)(C)C(=O)O [Et2 CHNHCOCH2 CH2 CO-Asp(pyrrolidino)-Asp(diMe)-NH[CH2 CH2 C(CH3)3 ]]	75 µM

— patent publication US5484771A, “Antiherpes peptide derivatives having a 1,4-dioxo-C, N-terminus” (priority 1994, dated 1996)
